Source: patent US9006440B2, “Furopyridine derivatives” (Merck Patent GmbH, priority 2010, dated 2015)

Key:
Syk = target: T1, Syk (Homo sapiens, UniProt P43405); test: Syk enzyme assay (SYK flash plate assay / Caliper mobility shift); format: biochemical
T1 construct: purchased BPS Bioscience, CA, USA
Method in brief: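 Flashplate format: 2.5 nM SYK, 400 nM biotinylated peptide, 10 μM ATP with 33P-ATP, pH 7.5, 1 h at 30 °C; radioactivity read, staurosporine background. Caliper format: 90 min at 25 °C, mobility-shift read of substrate-to-product conversion; IC50 from dose-response curve.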

[1] = tested on: BLNK phosphorylation in Ramos cells; test: BCR crosslinking-induced BLNK phosphorylation (BLNK cell assay); format: cell-based; settings: Homo sapiens
Experimental: 1. BCR Crosslinking-Induced BLNK Phosphorylation
Ramos cells incubated overnight in IMDM medium containing 5% FCS were resuspended in IMDM medium without serum (3.3×10^6 cells/ml). 90 μl of cell suspension (300′000 cells) were incubated with 10 μl of SYK inhibitors (in 3% DMSO) for 20 minutes at 37° C., in 96 well plates. After preincubation with inhibitors, cells were activated with 10 μg/ml of goat antihuman anti-IgM for 10 minutes at 37° C. After stimulation, cells were fixed by addition of 80 μl of 4% paraformaldehyde followed by a 10 minutes incubation at RT and […] in 0.1% Triton X-100 in PBS. BLNK phosphorylation was detected by flow cytometry after staining of the cells with anti-BLNK-pY84-PE antibodies from BD pharmingen, for 45 minutes at RT.
BLNK phosphorylation in CD19^+ peripheral blood mononuclear cells (PBMC) isolated from buffy coats of healthy volunteers was performed using the same protocol and staining the cells with a mixture of anti-BLNK-pY84-PE, anti CD-19 PerCp and Anti-IgM APC antibodies from BD Pharmingen.

SRC = target: T2, SRC (Homo sapiens, UniProt P12931); test: Src enzymatic assay (Caliper LifeSciences technology); format: biochemical
T2 construct: purchased Carna Bioscience, Kobe, Japan
Method in brief: (§1)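 Off-chip mobility-shift assay measuring conversion of a fluorescently labelled peptide substrate, in 100 mM HEPES pH 7.5, 1 mM DTT, 1 mM MgCl2 and 0.015% Brij-35. Reactions ran 90 min at 25 C and were stopped with EDTA. IC50s were derived from percent-conversion dose-response curves.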

BTK = target: T3, BTK (Homo sapiens, UniProt Q06187); test: BTK enzymatic assay (Caliper LifeSciences technology); format: biochemical
T3 construct: purchased Carna Bioscience, Kobe, Japan
Experimental: (§2) The assays described here are performed on the Caliper Life Sciences LC3000 system This technology provides data on enzyme activity via measurement of the relative amounts of phosphorylated or unphosphorylated fluorescently labelled substrate peptide at the end of an enzymatic reaction. These different states of peptide are resolved by applying a potential difference across the sample. The presence of the charged phosphate group on the product (as opposed to the substrate) causes a different peptide mobility between the two peptides. This is visualized by excitation of the fluorescent label on the substrate and product peptides and represented as peaks within the analysis software.
(§3) In order to measure inhibitor activity of kinase inhibitors on this technology, a TTP Mosquito liquid handling instrument is used to place 0.25 ul of the appropriate concentration of inhibitor in 100% DMSO (for a dose response curve calculation) into each well of a 384-well plate. To this reaction components are added to a final volume of 25 ul. The table below indicates the sequences and concentrations for the assays described in this report. Standard components are 1 mM DTT (Sigma, D0632), 1 mM MgCl2 (Sigma, M1028), 100 mM HEPES pH 7.5 (Calbiochem, 391338), 0.015% Brij-35 (Sigma, B4184).
(§4) The reaction is incubated for 90 min at 25 C, and then stopped by the addition of 70 ul of Stop buffer (100 mM HEPES pH 7.5, 0.015% Brij-35, 10 mM EDTA (Sigma, E7889)).
(§5) The plate is read on a Caliper LC 3000 in an Off-Chip mobility shift assay format, on a 12-sipper chip. Unphosphorylated substrate and phosphorylated product peptide resolve as separate peaks allowing direct measurement of percentage of conversion of substrate to product. The percent conversion can be plotted against concentration of inhibitor to produce a sigmoidal dose response curve, from which an IC50 can be calculated using GeneData Condoseo or a similar product.

KDR = target: T4, KDR (Homo sapiens, UniProt P35968); test: KDR enzymatic assay (Caliper LifeSciences technology); format: biochemical
T4 construct: purchased BPS Bioscience, CA, USA
Method in brief: as §1

Zap70 = target: T5, Zap70 (Homo sapiens, UniProt P43403); test: ZAP-70 enzymatic assay (Caliper LifeSciences technology); format: biochemical
T5 construct: purchased BPS Bioscience, CA, USA
T5 sequence (P43403 1-619): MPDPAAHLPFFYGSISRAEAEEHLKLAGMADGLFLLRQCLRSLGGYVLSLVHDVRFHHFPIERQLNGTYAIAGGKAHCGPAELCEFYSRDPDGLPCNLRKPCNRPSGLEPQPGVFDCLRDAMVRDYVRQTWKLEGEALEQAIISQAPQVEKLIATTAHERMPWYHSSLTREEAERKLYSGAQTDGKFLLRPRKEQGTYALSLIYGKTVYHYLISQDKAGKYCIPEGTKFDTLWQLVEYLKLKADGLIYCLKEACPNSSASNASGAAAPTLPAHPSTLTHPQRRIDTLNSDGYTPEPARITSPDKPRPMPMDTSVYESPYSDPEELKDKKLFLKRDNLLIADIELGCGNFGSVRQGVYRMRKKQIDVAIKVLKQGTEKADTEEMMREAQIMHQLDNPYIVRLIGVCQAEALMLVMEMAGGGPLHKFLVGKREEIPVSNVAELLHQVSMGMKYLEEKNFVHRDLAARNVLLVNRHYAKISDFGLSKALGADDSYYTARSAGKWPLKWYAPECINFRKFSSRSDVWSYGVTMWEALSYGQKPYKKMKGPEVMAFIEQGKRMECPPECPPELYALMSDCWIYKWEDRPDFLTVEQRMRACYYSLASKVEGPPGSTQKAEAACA
Experimental: as §2, §3, §4, §5

murine model of RA = settings: cited from earlier work
[2] = tested on: RA Phase II studies in humans; settings: cited from earlier work

T3 sequence (Q06187 whole entry): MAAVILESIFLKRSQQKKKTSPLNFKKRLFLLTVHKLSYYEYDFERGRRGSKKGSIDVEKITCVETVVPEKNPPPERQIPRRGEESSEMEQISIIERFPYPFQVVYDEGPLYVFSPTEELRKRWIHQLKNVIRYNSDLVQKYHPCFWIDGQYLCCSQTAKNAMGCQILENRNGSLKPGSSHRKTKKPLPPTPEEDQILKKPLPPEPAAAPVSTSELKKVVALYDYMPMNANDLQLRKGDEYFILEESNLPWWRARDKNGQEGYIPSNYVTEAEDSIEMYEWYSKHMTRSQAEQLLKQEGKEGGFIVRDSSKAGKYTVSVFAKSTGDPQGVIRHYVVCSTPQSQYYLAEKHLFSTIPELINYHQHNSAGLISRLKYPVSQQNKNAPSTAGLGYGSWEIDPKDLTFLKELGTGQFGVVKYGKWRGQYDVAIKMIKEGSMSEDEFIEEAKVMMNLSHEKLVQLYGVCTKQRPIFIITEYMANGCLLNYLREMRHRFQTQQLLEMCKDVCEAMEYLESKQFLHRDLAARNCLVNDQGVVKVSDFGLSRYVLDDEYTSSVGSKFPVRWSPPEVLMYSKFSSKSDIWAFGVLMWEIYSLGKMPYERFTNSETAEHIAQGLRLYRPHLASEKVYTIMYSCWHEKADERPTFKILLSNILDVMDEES
T4 sequence (P35968 20-1356): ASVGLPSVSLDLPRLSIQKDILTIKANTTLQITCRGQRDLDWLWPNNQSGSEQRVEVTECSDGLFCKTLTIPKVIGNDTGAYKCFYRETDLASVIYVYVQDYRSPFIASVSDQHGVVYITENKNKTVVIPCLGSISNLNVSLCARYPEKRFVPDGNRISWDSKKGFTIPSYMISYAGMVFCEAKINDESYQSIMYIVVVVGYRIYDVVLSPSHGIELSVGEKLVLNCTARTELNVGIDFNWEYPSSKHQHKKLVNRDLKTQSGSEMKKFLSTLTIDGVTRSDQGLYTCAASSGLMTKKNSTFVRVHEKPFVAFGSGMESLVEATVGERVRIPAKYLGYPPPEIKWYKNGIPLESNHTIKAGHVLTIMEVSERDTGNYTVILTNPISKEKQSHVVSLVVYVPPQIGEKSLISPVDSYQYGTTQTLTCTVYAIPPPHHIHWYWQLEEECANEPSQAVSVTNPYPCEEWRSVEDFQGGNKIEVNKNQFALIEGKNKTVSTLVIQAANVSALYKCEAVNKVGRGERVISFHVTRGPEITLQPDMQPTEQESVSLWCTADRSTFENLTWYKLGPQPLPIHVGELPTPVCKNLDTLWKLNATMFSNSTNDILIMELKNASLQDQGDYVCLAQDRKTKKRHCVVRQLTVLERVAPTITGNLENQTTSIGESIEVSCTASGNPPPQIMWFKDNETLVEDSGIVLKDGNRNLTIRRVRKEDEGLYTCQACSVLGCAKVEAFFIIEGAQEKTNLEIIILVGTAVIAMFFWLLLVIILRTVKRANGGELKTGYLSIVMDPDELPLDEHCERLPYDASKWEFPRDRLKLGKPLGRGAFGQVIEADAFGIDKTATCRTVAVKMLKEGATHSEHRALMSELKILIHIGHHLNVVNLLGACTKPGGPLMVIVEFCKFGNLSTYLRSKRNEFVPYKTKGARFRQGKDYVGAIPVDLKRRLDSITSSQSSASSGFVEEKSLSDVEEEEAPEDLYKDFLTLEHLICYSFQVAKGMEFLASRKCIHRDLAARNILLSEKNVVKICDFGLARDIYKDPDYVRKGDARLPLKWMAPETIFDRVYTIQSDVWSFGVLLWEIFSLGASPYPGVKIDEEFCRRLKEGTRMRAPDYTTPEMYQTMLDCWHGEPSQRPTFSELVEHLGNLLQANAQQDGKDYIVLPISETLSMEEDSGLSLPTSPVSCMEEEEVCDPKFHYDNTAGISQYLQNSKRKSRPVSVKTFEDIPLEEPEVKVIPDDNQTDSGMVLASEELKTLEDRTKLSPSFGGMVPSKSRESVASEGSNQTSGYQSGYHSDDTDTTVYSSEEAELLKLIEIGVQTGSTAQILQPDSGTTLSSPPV
T2 sequence (P12931 whole entry): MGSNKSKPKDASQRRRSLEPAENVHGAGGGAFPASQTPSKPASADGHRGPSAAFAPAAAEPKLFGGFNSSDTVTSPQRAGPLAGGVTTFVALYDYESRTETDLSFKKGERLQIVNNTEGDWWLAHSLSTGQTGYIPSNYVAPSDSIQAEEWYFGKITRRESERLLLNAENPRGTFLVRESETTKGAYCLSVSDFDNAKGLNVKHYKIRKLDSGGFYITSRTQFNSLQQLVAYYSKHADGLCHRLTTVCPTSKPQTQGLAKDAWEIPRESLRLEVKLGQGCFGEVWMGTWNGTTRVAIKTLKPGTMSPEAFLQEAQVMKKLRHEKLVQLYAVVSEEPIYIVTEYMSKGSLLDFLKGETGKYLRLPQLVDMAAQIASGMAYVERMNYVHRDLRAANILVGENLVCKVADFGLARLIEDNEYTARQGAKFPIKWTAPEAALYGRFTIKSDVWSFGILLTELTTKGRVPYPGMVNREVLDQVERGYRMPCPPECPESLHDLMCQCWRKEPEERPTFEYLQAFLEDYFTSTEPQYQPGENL

Structure (SMILES) | IC50 (Syk) [nM] | IC50 [1] [nM] | IC50 (SRC) [nM] | IC50 (BTK) [nM] | IC50 (KDR) [nM] | IC50 (Zap70) [nM] | bone erosion (murine model of RA) | serum cytokine concentrations (murine model of RA) | clinical scores (murine model of RA; orally available) | efficacy (ACR scores) [2] | tolerability [2]
COc1cc(-c2cc3nccc(Nc4ccc5[nH]ccc5c4C)c3o2)cc(OC)c1OC [Compound B22] | < 300 | 3000 to 50000 | < 300 | 300 to 3000 | < 300 |  |  |  |  |  | 
COc1cc(-c2cc3nccc(Nc4ccc5[nH]ccc5c4)c3o2)cc(OC)c1OC [Compound B30] | < 300 | 3000 to 50000 | < 300 | 300 to 3000 | < 300 |  |  |  |  |  | 
COc1cc(-c2cc3nccc(-c4ccc5[nH]ccc5c4)c3o2)cc(OC)c1OC [Compound B74, 7-(1H-Indol-5-yl)-2-(3,4,5-trimethoxyphenyl)furo[3,2-b]pyridine] | 300 to 3000 | 300 to 3000 |  | 3000 to 50000 |  |  |  |  |  |  | 
COc1cc(Nc2ncc(F)c(Nc3ccc4c(n3)NC(=O)C(C)(C)O4)n2)cc(OC)c1OC [Compound R406] |  |  |  |  |  |  | significantly reduced | significantly reduced | significant improvement | ACR scores improvement | good tolerability

The next lines start with results.

IC50 (Syk) [nM] | IC50 [1] [nM] | IC50 (SRC) [nM] | IC50 (BTK) [nM] | IC50 (KDR) [nM] | IC50 (Zap70) [nM] | Structure (SMILES) | bone erosion (murine model of RA) | serum cytokine concentrations (murine model of RA) | clinical scores (murine model of RA; orally available) | efficacy (ACR scores) [2] | tolerability [2]
< 300 | 3000 to 50000 |  |  |  |  | COc1cc(-c2cc3nccc(-c4ccccc4)c3o2)cc(OC)c1OC [Compound A5, 7-Phenyl-2-(3,4,5-trimethoxy-phenyl)-furo[3,2-b]pyridine] |  |  |  |  | 
< 300 | 3000 to 50000 |  |  | 3000 to 50000 | 3000 to 50000 | COc1cc(-c2cc3nccc(-c4ccc5c(c4)NC(=O)C5)c3o2)cc(OC)c1OC [Compound B71, 6-(2-(3,4,5-Trimethoxyphenyl)furo[3,2-b]pyridin-7-yl)indolin-2-one] |  |  |  |  | 
